Experimental data published in patent US7727999B2, “Spiroazacyclic compounds as monoamine receptor modulators” (ACADIA Pharmaceuticals Inc., priority 2001, dated 2010).
Counter-ions that a name gives are not always drawn. Values belong to the compound of their own block, whether it stands above or below them.

Key:
[1] = biological target: T1, alpha 2A (Homo sapiens, UniProt P08913); assay: R-SAT selectivity profiling, alpha 2A; assay type: cell-based; conditions: antagonist assay, read-out: pEC50 or pIC50 (converted)
T1 construct: expressed in transfected cells; host or cells: NIH3T3 cells, pSI vector
T1 sequence (P08913 1-465): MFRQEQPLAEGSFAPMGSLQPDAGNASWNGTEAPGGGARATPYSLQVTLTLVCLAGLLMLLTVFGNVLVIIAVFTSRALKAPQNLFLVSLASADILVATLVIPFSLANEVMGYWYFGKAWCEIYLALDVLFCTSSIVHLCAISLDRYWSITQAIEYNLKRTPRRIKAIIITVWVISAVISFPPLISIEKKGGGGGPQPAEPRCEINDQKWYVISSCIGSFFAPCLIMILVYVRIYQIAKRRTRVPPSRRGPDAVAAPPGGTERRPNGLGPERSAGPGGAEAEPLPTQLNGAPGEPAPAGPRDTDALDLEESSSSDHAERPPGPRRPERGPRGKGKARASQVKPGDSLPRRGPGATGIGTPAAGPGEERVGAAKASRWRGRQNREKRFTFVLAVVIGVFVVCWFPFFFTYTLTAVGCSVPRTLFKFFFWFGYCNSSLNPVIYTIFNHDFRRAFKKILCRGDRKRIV
Description: (§1) The functional receptor assay, Receptor Selection and Amplification Technology (R-SAT), was used (with minor modifications from that previously described U.S. Pat. No. 5,707,798) to screen compounds for efficacy at the 5-HT2A receptor. Briefly, NIH3T3 cells were grown in 96 well tissue culture plates to 70-80% confluence. Cells were transfected for 12-16 hours with plasmid DNAs using superfect (Qiagen Inc.) as per manufacture's protocols. R-SAT's were generally performed with 50 ng/well of receptor and 20 ng/well of Beta-galactosidase plasmid DNA-All receptor and G-protein constructs used were in the pSI mammalian expression vector (Promega Inc) as described in U.S. Pat. No. 5,707,798. The 5HT2A receptor gene was amplified by nested PCR from brain cDNA using the oligodeoxynucleotides based on the published sequence (see Saltzman et. al. Biochem. Biophys. Res. Comm. 181:1469-78 (1991)). Large-scale transfections, cells were transfected for 12-16 hours, then trypsinized and frozen in DMSO. […] Media was then removed from the plates and marker gene activity was measured by the addition of the beta-galactosidase substrate ONPG (in PBS with 5% NP-40). The resulting calorimetric reaction was measured in a spectrophotometric plate reader (Titertek Inc.) at […]. All data were analyzed using the computer program XLFit (IDBSm). […]

[2] = biological target: T2, H1 (Homo sapiens, UniProt P35367); assay: R-SAT selectivity profiling, H1; assay type: cell-based; conditions: H1, antagonist assay; read-out: pEC50 or pIC50 (converted)
T2 construct: expressed in transfected cells; host or cells: NIH3T3 cells, pSI vector
T2 sequence (P35367 whole entry): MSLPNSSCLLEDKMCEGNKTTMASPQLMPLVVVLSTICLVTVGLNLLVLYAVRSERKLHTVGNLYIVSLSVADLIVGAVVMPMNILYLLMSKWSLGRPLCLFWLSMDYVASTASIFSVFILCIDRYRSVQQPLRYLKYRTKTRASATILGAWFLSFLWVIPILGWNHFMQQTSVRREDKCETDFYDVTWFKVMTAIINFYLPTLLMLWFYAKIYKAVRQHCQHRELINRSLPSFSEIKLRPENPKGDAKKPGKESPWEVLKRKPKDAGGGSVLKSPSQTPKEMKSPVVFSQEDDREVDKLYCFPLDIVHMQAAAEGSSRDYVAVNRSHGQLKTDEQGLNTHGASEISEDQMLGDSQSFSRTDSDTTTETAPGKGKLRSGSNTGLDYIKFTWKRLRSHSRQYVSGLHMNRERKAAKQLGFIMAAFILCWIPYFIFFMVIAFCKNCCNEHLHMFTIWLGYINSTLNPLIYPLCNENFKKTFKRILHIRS
Description: as §1

[3] = system: spontaneous locomotor activity; assay: Spontaneous locomotor activity in mice; assay type: in vivo; conditions: at doses that attenuate MK-801 hyperactivity; compound administered alone
Description: Male Non-Swiss Albino mice (Harlan Sprague-Dawley) were housed (4 mice/cage) in rooms with temperature and humidity controlled and water and food (Harlan Teklad) freely available. Mice were kept on a 12-hr light:dark cycle. For locomotor experiments, plastic 20×20×30 cm activity cages were equipped with photocell beams (AccuScan Instruments). For hyperactivity experiments, mice were treated with 0.3 mg/kg dizocilpine i.p. 15 min before the session. Mice were treated with 69NLS75 s.c. 10 min before the session or p.o. 30 min before the session and placed into the activity cages. For spontaneous activity, 69NLS75 was administered alone. Locomotor data were collected during a 15 min session without habituation in a lit room. Each dose combination was tested in a separate group of animals (n=8). Distance traveled (cm) was calculated and averaged followed by ANOVA and post-hoc Dunnett's t-test comparisons.

[4] = biological target: T3, 5HT1A (Homo sapiens, UniProt P08908); assay: R-SAT selectivity profiling, 5HT1A; assay type: cell-based; conditions: antagonist assay, read-out: pEC50 or pIC50 (converted)
T3 construct: expressed in transfected cells; host or cells: NIH3T3 cells, pSI vector
T3 sequence (P08908 1-422): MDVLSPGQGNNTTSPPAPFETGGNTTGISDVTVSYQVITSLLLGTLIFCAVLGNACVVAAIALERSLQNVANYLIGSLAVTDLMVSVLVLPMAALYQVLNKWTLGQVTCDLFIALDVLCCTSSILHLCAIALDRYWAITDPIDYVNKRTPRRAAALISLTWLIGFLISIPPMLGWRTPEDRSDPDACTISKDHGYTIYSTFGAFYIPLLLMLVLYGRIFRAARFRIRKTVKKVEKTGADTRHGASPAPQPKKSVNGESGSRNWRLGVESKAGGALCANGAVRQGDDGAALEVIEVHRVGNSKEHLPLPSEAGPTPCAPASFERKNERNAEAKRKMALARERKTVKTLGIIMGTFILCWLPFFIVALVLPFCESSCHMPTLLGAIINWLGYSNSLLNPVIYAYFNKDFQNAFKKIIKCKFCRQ
Description: as §1

[5] = biological target: T4, 5-HT2A receptor (Homo sapiens, UniProt P28223); assay: R-SAT functional receptor assay at the 5-HT2A receptor; assay type: cell-based; conditions: for IC50: R-SAT, NIH3T3 cells, inverse agonism (repression of basal response), read-out: 5HT2A pIC50 (converted)
T4 construct: expressed in transfected cells; host or cells: NIH3T3 cells, pSI mammalian expression vector
T4 sequence (P28223 whole entry): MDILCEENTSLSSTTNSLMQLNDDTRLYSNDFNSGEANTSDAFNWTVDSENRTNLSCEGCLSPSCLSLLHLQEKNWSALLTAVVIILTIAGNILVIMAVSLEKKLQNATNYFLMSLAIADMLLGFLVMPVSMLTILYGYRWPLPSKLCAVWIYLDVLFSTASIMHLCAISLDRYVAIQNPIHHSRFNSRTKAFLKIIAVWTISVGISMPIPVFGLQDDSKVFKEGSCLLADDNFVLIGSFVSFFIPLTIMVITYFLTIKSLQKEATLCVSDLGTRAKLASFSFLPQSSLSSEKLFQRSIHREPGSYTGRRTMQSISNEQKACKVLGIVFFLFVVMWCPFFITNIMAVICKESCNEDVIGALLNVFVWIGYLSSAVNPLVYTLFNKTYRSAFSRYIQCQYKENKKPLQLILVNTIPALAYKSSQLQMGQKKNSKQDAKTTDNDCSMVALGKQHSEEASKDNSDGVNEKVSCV
From the text: The EC50 for an agonist is intended to denote the concentration of a compound needed to achieve 50% of a maximal response seen in R-SAT. For inverse agonists, EC50 is intended to denote the concentration of a compound needed to achieve 50% inhibition of an R-SAT response from basal, no compound, levels.
The functional receptor assay, Receptor Selection and Amplification Technology (R-SAT), was used (with minor modifications from that previously described U.S. Pat. No. 5,707,798) to screen compounds for efficacy at the 5-HT2A receptor. Briefly, NIH3T3 cells were grown in 96 well tissue culture plates to 70-80% confluence. Cells were transfected for 12-16 hours with plasmid DNAs using superfect (Qiagen Inc.) as per manufacture's protocols. R-SAT's were generally performed with 50 ng/well of receptor and 20 ng/well of Beta-galactosidase plasmid DNA-All receptor and G-protein constructs used were in the pSI mammalian expression vector (Promega Inc) as described in U.S. Pat. No. 5,707,798. The 5HT2A receptor gene was amplified by nested PCR from brain cDNA using the oligodeoxynucleotides based on the published sequence (see Saltzman et. al. Biochem. Biophys. Res. Comm. 181:1469-78 (1991)). Large-scale transfections, cells were transfected for 12-16 hours, then trypsinized and frozen in DMSO. Frozen cells were later thawed, plated at 10,000-40,000 cells per well of a 96 well plate that contained drug. With both methods, cells were then grown in a humidified atmosphere with 5% ambient CO2 for five days. Media was then removed from the plates and marker gene activity was measured by the addition of the beta-galactosidase substrate ONPG (in PBS with 5% NP-40). The resulting […] reaction was measured in a spectrophotometric plate reader (Titertek Inc.) at […]. All data were analyzed using the computer program XLFit (IDBSm). Efficacy is the percent maximal repression compared to repression by a control compound (ritanserin in the case of 5HT2A). pIC50 is the negative of the log(IC50), where IC50 is the calculated concentration in Molar that produces 50% maximal repression.
The R-SAT assay (described above in example) was used to investigate the selectivity of 4-(4-Fluoro-benzyl)-3-(4-isobutoxy-benzyl)-8-methyl-1-oxa-3,8-diaza-spiro[4.5]decan-2-one.

[6] = biological target: T5, 5HT 2C (Homo sapiens, UniProt P28335); assay: R-SAT selectivity profiling, 5HT 2C; assay type: cell-based
T5 construct: expressed in transfected cells; host or cells: NIH3T3 cells, pSI vector
T5 sequence (P28335 33-458): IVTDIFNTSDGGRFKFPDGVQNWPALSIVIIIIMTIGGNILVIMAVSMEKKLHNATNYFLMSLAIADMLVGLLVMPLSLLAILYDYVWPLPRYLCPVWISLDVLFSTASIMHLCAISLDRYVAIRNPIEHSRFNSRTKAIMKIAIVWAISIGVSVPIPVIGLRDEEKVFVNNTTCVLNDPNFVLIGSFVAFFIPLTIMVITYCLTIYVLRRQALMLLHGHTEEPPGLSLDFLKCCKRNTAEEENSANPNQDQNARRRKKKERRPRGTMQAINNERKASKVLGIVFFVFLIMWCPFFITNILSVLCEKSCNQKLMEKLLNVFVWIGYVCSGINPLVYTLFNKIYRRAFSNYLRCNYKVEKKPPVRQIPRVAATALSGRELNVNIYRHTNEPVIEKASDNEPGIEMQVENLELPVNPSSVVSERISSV
Description: as §1

[7] = system: MK-801-induced hyperactivity in mice; assay: Attenuation of MK-801 (dizocilpine)-induced hyperactivity in mice; assay type: in vivo; conditions: for MED (mg/kg) p.o.: mice treated with MK801, oral administration; for dose giving statistically significant decrease of MK-801-induced hyperactivity compared to vehicle control: 0.3 mg/kg dizocilpine i.p.
Description: Male Non-Swiss Albino mice (Harlan Sprague-Dawley) were housed (4 mice/cage) in rooms with temperature and humidity controlled and water and food (Harlan Teklad) freely available. Mice were kept on a 12-hr light:dark cycle. For locomotor experiments, plastic 20×20×30 cm activity cages were equipped with photocell beams (AccuScan Instruments).
For hyperactivity experiments, mice were treated with 0.3 mg/kg dizocilpine i.p. 15 min before the session. Mice were treated with 69NLS75 s.c. 10 min before the session or p.o. 30 min before the session and placed into the activity cages. For spontaneous activity, 69NLS75 was administered alone. Locomotor data were collected during a 15 min session without habituation in a lit room. Each dose combination was tested in a separate group of animals (n=8). Distance traveled (cm) was calculated and averaged followed by ANOVA and post-hoc Dunnett's t-test comparisons.
The effect of various compounds on locomotor activity in mice treated with MK801 was observed as described above.
Animals received 0.1-30 mg/kg of the compound indicated via subcutaneous injection or oral administration. MED indicates the minimum effective dose at which a statistically significant reduction of locomotor activity (described above) was observed. MED=minimum effective dose in vivo.

[8] = biological target: T6, m3 (Homo sapiens, UniProt P20309); assay: R-SAT selectivity profiling, m3; assay type: cell-based; conditions: m3, antagonist assay; read-out: pEC50 or pIC50 (converted)
T6 construct: expressed in transfected cells; host or cells: NIH3T3 cells, pSI vector
T6 sequence (P20309 whole entry): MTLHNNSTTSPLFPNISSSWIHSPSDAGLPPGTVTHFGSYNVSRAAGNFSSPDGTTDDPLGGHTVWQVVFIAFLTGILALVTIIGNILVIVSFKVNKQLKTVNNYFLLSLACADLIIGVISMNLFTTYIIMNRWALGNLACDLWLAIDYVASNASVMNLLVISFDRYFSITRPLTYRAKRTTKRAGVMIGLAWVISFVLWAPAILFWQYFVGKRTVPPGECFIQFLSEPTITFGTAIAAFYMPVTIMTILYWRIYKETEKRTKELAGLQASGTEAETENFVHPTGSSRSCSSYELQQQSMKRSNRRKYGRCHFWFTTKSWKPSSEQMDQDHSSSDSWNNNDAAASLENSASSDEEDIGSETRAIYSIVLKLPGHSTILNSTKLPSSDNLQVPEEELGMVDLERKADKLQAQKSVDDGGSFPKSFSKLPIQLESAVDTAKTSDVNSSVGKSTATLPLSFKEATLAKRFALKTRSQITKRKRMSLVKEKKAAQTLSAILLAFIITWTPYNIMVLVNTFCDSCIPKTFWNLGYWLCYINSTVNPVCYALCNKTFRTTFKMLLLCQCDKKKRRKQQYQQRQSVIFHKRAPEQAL
Description: as §1

[9] = minimum effective dose for statistically significant reduction of locomotor activity
[10] = efficacy: percent maximal repression compared to ritanserin

SMILES: CC(C)COc1ccc(CN2C(=O)OC3(CCN(C)CC3)C2Cc2ccc(F)cc2)cc1.Cl (racemic) [Compound 69NLS75, 4-(4-Fluorobenzyl)-3-(4-isobutoxybenzyl)-8-methyl-1-oxa-3,8-diaza-spiro[4.5]decan-2-one, hydrochloride]
IC50 [1]: 0.501 µM | IC50 [2]: 0.2 µM | effect on spontaneous locomotor activity [3]: no effect | IC50 [4]: 0.398 µM | efficacy in brackets (%) ([5]; 5HT2A, inverse agonist assay): 94% | pEC50 or pIC50 ([5]; 5HT2A, inverse agonist assay): 9.5 | IC50 [5]: 0.000316 µM | Emax ([5]; efficacy: percent maximal repression compared to ritanserin, read-out: 5HT2A % inhibition): 94% | efficacy in brackets (%) [6]: 77% | IC50 ([6]; 5HT 2C, inverse agonist assay, read-out: pEC50 or pIC50 (converted)): 0.0316 µM | effect on MK-801-induced hyperactivity in mice ([7]; distance traveled, 15 min session): dose-related decrease | MED (mg/kg) p.o. [7, 9]: 3 mg/kg | MED (mg/kg) s.c. ([7]; minimum effective dose for statistically significant reduction of locomotor activity, mice treated with MK801, subcutaneous injection): 3 mg/kg | dose giving statistically significant decrease of MK-801-induced hyperactivity compared to vehicle control ([7]; p.o. 30 min before session): 3 mg/kg | dose giving statistically significant decrease of MK-801-induced hyperactivity compared to vehicle control ([7]; s.c. 10 min before session): 3 mg/kg | IC50 [8]: 0.398 µM

enantiomer preference at the 5-HT2A receptor in vitro ([5]; (S)- versus (R)-enantiomer, Table 1): eutomer | IC50 [5]: 0.000251 µM | 5HT2A % inhibition [5, 10]: 98%
SMILES: CC(C)COc1ccc(CN2C(=O)OC3(CCN(C)CC3)[C@@H]2Cc2ccc(F)cc2)cc1 (single isomer, unassigned) [Compound 78NLS59, hydrochloride]

SMILES: CC(C)COc1ccc(CN2C(=O)OC3(CCN(C)CC3)[C@H]2Cc2ccc(F)cc2)cc1.Cl (single isomer, unassigned) [Compound 78NLS62, hydrochloride]
IC50 [5]: 0.00631 µM

SMILES: CC(C)COc1ccc(CN2C(=O)OC3(CCN(C)CC3)[C@H]2Cc2ccc(F)cc2)cc1.Cl (single isomer, unassigned) [Compound 78NLS62]
5HT2A % inhibition [5, 10]: 89%

SMILES: CN1CCC2(CC1)OC(=O)N(Cc1ccc(OCC3CC3)cc1)C2Cc1ccc(F)cc1.Cl (centres unmarked) [Compound 69NLS52, 3-(4-Cyclopropylmethoxybenzyl)-4-(4-fluorobenzyl)-8-methyl-1-oxa-3,8-diaza-spiro[4.5]decan-2-one, hydrochloride]
MED (mg/kg) p.o. [7, 9]: 10 mg/kg

SMILES: CC(C)COc1ccc(CN2C(=O)OC3(CCN(CCC4OCCO4)CC3)C2Cc2ccc(F)cc2)cc1.Cl (centres unmarked) [Compound 69NLS79-II, 8-(2-[1,3]Dioxolan-2-yl-ethyl)-4-(4-fluorobenzyl)-3-(4-isobutoxybenzyl)-1-oxa-3,8-diaza-spiro[4.5]decan-2-one, hydrochloride]
MED (mg/kg) p.o. [7, 9]: 3 mg/kg
